Assay results taken from US20150105252A1, “SUBSTITUTED PYRAZOLES AS HERBICIDES” (E I DU PONT DE NEMOURS AND COMPANY, priority 2013, published 2015).

Assays:
foxtail, green = assay: Test E preemergence; assay type: in vivo, Setaria viridis; details: 21 days, scale 0 to 100
Excerpt: (§1) Seeds of plant species selected from bermudagrass (Cynodon dactylon), Surinam grass (Brachiaria decumbens), crabgrass, large (large crabgrass, Digitaria sanguinalis), crabgrass, naked (naked crabgrass, Digitaria nuda), foxtail, green (green foxtail, Setaria viridis), johnsongrass (Sorghum halepense), kochia (Kochia scoparia), morningglory (pitted morningglory, Ipomoea lacunosa), nutsedge, purple (purple nutsedge, Cyperus rotundus), ragweed (common ragweed, Ambrosia elation), mustard, black (black mustard, Brassica nigra), guineagrass (Panicum maximum), dallisgrass (Paspalum dilatatum), barnyardgrass (Echinochloa crus-galli), sandbur (southern sandbur, Cenchrus echinatus), sowthistle (common sowthistle, Sonchus oleraceous), ryegrass, Italian (Italian ryegrass, Lolium multiflorum), signalgrass (broadleaf signalgrass, Brachiaria platyphylla), dayflower, VA (Virginia (VA) dayflower, Commelina virginica), bluegrass (annual bluegrass, Poa annua), quackgrass (Elytrigia repens), mallow (common mallow, Malva sylvestris), buckwheat, wild (wild buckwheat, Polygonum convolvulus), leafy spurge (Euphorbia esula), common chickweed (Stellaria media), wild poinsettia (Euphorbia heterophylla), pigweed, palmer (palmer pigweed, Amaranthus palmeri), and pigweed (redroot pigweed, Amaranthus retroflexus) were planted into a blend of loam soil and sand and treated preemergence with test chemicals formulated in a non-phytotoxic solvent mixture which included a surfactant.
(§2) Treated plants and controls were maintained in a greenhouse for 21 days, after which time all species were compared to controls and visually evaluated. Plant response ratings, summarized in Table E, are based on a scale of 0 to 100 where 0 is no effect and 100 is complete control. A dash (-) response means no test result.

mustard, black = assay: Test E preemergence; assay type: in vivo, Brassica nigra; details: 21 days, scale 0 to 100
Excerpt: as §1, §2

ryegrass, Italian = assay: Test E preemergence; assay type: in vivo, Lolium multiflorum; details: 21 days, scale 0 to 100
Excerpt: as §1, §2

wild poinsettia = assay: Test E preemergence; assay type: in vivo, Euphorbia heterophylla; details: 21 days, scale 0 to 100
Excerpt: as §1, §2

pigweed = assay: Test E preemergence; assay type: in vivo, Amaranthus retroflexus; details: 21 days, scale 0 to 100
Excerpt: as §1, §2

dayflower, VA = assay: Test F postemergence; assay type: in vivo, Commelina virginica; details: scale 0 to 100
Method in brief: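 Test chemicals in a non-phytotoxic solvent with surfactant were applied preemergence to seeds sown in silt loam, or postemergence to plants 2–18 cm tall (1- to 4-leaf stage). Plants were kept in a greenhouse for 14–21 days and then rated visually against controls on a 0 (no effect) to 100 (complete control) scale.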

smartweed = assay: Test F postemergence; assay type: in vivo, Polygonum persicaria; details: 500 g ai/ha, scale 0 to 100
Excerpt: (§3) Seeds of plant species selected from corn (Zea mays), soybean (Glycine max), velvetleaf (Abutilon theophrasti), lambsquarters (Chenopodium album), wild poinsettia (Euphorbia heterophylla), pigweed, palmer (palmer pigweed, Amaranthus palmeri), common waterhemp (Amaranthus rudis), surinam grass (Brachiaria decumbens), large crabgrass (Digitaria sanguinalis), crabgrass, Brazil (Brazilian crabgrass, Digitaria horizontalis), fall panicum (Panicum dichotomiflorum), giant foxtail (Setaria faberii), green foxtail (Setaria viridis), goosegrass (Eleusine indica), johnsongrass (Sorghum halepense), common ragweed (Ambrosia elation), barnyardgrass (Echinochloa crus-galli), southern sandbur (Cenchrus echinatus), arrowleaf sida (Sida rhombifolia), Italian ryegrass (Lolium multiflorum), dayflower, VA (Virginia (VA) dayflower, Commelina virginica), field bindweed (Convolvulus arvensis), cocklebur (common cocklebur, Xanthium strumarium), morningglory (Ipomoea coccinea), nightshade (eastern black nightshade, Solanum ptycanthum), kochia (Kochia scoparia), yellow nutsedge (Cyperus esculentus), and hairy beggarticks (Bidens pilosa), were planted into a silt loam soil and treated preemergence with test chemicals formulated in a non-phytotoxic solvent mixture which included a surfactant.
(§4) At the same time, plants from these crop and weed species and also horseweed (Canada horseweed, Conyza canadensis), smartweed (ladysthumb smartweed, Polygonum persicaria), waterhemp_RES1, (ALS & Triazine resistant common waterhemp, Amaranthus rudis), and waterhemp_RES2, (ALS & HPPD resistant common waterhemp, Amaranthus rudis) were treated with postemergence applications of test chemicals formulated in the same manner. Plants ranged in height from 2 to 18 cm for postemergence treatments (1- to 4-leaf stage). Treated plants and controls were maintained in a greenhouse for 14 to 21 days, after which time all species were compared to controls and visually evaluated. Plant response ratings, summarized in Table F, are based on a scale of 0 to 100 where 0 is no effect and 100 is complete control. A dash (-) response means no test result.

common waterhemp = assay: Test F postemergence; assay type: in vivo, Amaranthus rudis; details: scale 0 to 100
Excerpt: as §3, §4

`CCCc1cc(C(=O)NCC(F)(F)F)nn1Cc1ccnc(C(F)(F)F)c1` [Compound 105] was tested, and the “Plant response rating, Foxtail, Green” value (foxtail, green; 16 g ai/ha) was 95, the “Plant response rating, Foxtail, Green” value (foxtail, green; 31 g ai/ha) was 98 and the “Plant response rating, Foxtail, Green” value (foxtail, green; 62 g ai/ha) was 100. The “Plant response rating, Foxtail, Green” value (foxtail, green; 125 g ai/ha) was 100, the “Plant response rating, Foxtail, Green” value (foxtail, green; 250 g ai/ha) was 100 and the “Plant response rating, Mustard, Black” value (mustard, black; 16 g ai/ha) was 100. For the same compound, the “Plant response rating, Mustard, Black” value (mustard, black; 31 g ai/ha) was 100, the “Plant response rating, Mustard, Black” value (mustard, black; 62 g ai/ha) was 100 and the “Plant response rating, Mustard, Black” value (mustard, black; 125 g ai/ha) was 100. The “Plant response rating, Mustard, Black” value (mustard, black; 250 g ai/ha) was 100, the “Plant response rating, Ryegrass, Italian” value (ryegrass, Italian; 16 g ai/ha) was 65 and the “Plant response rating, Ryegrass, Italian” value (ryegrass, Italian; 31 g ai/ha) was 85. For the same compound, the “Plant response rating, Ryegrass, Italian” value (ryegrass, Italian; 62 g ai/ha) was 100, the “Plant response rating, Ryegrass, Italian” value (ryegrass, Italian; 125 g ai/ha) was 100 and the “Plant response rating, Ryegrass, Italian” value (ryegrass, Italian; 250 g ai/ha) was 100. For the same compound, the “Plant response rating, Wild Poinsettia” value (wild poinsettia; 16 g ai/ha) was 50, the “Plant response rating, Wild Poinsettia” value (wild poinsettia; 31 g ai/ha) was 80 and the “Plant response rating, Wild Poinsettia” value (wild poinsettia; 62 g ai/ha) was 100. For the same compound, the “Plant response rating, Wild Poinsettia” value (wild poinsettia; 125 g ai/ha) was 100, the “Plant response rating, Wild Poinsettia” value (wild poinsettia; 250 g ai/ha) was 100 and the “Plant response rating, Pigweed” value (pigweed; 16 g ai/ha) was 100. For the same compound, the “Plant response rating, Pigweed” value (pigweed; 31 g ai/ha) was 100, the “Plant response rating, Pigweed” value (pigweed; 62 g ai/ha) was 100 and the “Plant response rating, Pigweed” value (pigweed; 125 g ai/ha) was 100. The “Plant response rating, Pigweed” value (pigweed; 250 g ai/ha) was 100, the “Plant response rating, Dayflower, VA” value (dayflower, VA; Postemergence, 31 g ai/ha) was 20 and the “Plant response rating, Dayflower, VA” value (dayflower, VA; Postemergence, 125 g ai/ha) was 80. For the same compound, the “Plant response rating, Dayflower, VA” value (dayflower, VA; Postemergence, 250 g ai/ha) was 85, the “Plant response rating, Dayflower, VA” value (dayflower, VA; postemergence, 62 g ai/ha) was 50 and the “Plant response rating, Dayflower, VA” value (dayflower, VA; postemergence, 500 g ai/ha) was 90. For the same compound, the “Plant response rating, Smartweed” value (smartweed) was 100, the “Plant response rating, Common Waterhemp” value (common waterhemp; Postemergence, 31 g ai/ha) was 65 and the “Plant response rating, Common Waterhemp” value (common waterhemp; Postemergence, 125 g ai/ha) was 65. For the same compound, the “Plant response rating, Common Waterhemp” value (common waterhemp; Postemergence, 250 g ai/ha) was 75, the “Plant response rating, Common Waterhemp” value (common waterhemp; postemergence, 62 g ai/ha) was 60 and the “Plant response rating, Common Waterhemp” value (common waterhemp; postemergence, 500 g ai/ha) was 80.
